Assay results: patent US20250360167A1 (Keryx Biopharmaceuticals, Inc., priority 2013, published 2025)

Tested on: C-Terminal FGF-23
Assay: Phase 2 trial (Example 2): C-terminal FGF-23
Assay type: in vivo, human
Details: n = 63
Description: The key secondary endpoints of the study were the mean changes in ferritin, hemoglobin and FGF-23 from baseline to the end of the 12-week treatment period versus placebo in the ITT group.

Substance: iron (+3), x (1, 2, 3-propanetricarboxylic acid, 2-hydroxy-), y (H2O) [KRX-0502]
- Mean C-Terminal FGF-23, Baseline (Baseline): 468 pg/mL
- Mean C-Terminal FGF-23, End of Treatment (Week 12) (Week 12, last observation carried forward): 316 pg/mL
